Data: patent US11415579B2, “Assay for measuring a rate of reaction between a target and a ligand candidate” (Imperial College Innovations Ltd., priority 2016, dated 2022)

Key:
[1] = Kinetic thiol consumption assay with model thiol glutathione; format: physicochemical; set-up: Rate constant with glutathione (k(GSH)): unit not given here; conditions: for Rate constant with glutathione (k(GSH)): 500 μM ligand, 5 μM thiol, phosphate buffer pH 8; for Rate constant with Glutathione: Protein: Glutathione, cysteine position NA, in h-1
Outline: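 First, 5 μM glutathione in degassed phosphate buffer (pH 8) receives immobilized TCEP beads (2% v/v). Then acrylamide is added and plates incubate 1 h at room temperature. Finally, fluorescence (380/470 nm) is normalized and fitted to first-order decay for rate constants.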

Cdk2(C177A, F80C) = biological target: T1, Cdk2(C177A, F80C) (Homo sapiens, UniProt P24941, C177A/F80C); test: Kinetic thiol consumption assay with Cdk2 mutant F80C, incl. kobs versus concentration (Kd, k2); format: binding; set-up: key to Rate enhancement, Cdk2 F80C: Cdk2 rate constant divided by model-thiol rate constant; conditions: additional mutation C177A; for Rate constant with Cdk2 F80C: Protein: Cdk2, cysteine position F80C, in h^-1
T1 construct: poly-histidine; made in house; host or cells: E. coli
Outline: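 His-tagged Cdk2(C177A/F80C) from E. coli or model thiol, 5 μM in degassed phosphate buffer pH 8 with TCEP beads, reacted with acrylamide ligands; fluorescence (ex/em 380/470 nm) normalized to DMSO control and fitted to first-order decay for kobs. Kd and k2 obtained from hyperbolic fit of kobs versus ligand concentration.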

[2] = biological target: T2, human cyclin-dependent kinase 2 (Cdk2) (Homo sapiens, UniProt P24941); test: Kinetic thiol consumption assay with wild type Cdk2 (C177); format: binding; set-up: key to Rate enhancement, Cdk2 WT: k(Cdk2) divided by k(model thiol); Rate constant with Cdk2 (k(Cdk2)): unit not given here; conditions: for Rate constant with Cdk2 (k(Cdk2)): 500 μM ligand, 5 μM thiol, phosphate buffer pH 8; for Rate enhancement, Cdk2 WT: no additional mutations; for Rate constant with Cdk2 WT: Protein: Cdk2, cysteine position WT, in h^-1; for k(Cdk2)/k(Cdk2_mut) rate enhancement: model thiol Cdk2[C177A, F80C, K278C]; for k(Cdk2)/k(GSH) rate enhancement: model thiol glutathione
T2 construct: poly-histidine; made in house; host or cells: E. coli
Outline: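 Rate constants came from first-order exponential decay fits of normalized fluorescence against time, with thiol (5 μM) in degassed pH 8 phosphate buffer containing 2% v/v TCEP beads and reads after 1 h at room temperature.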

Cdk2(T182C) (C177A) = biological target: T3, Cdk2(T182C) (C177A) (Homo sapiens, UniProt P24941, C177A/T182C); test: Kinetic thiol consumption assay with Cdk2 mutant T182C; format: binding; set-up: key to Rate enhancement, Cdk2 T182C: rate constant with Cdk2 ÷ rate constant with model thiol (fold); conditions: additional mutation C177A; for Rate constant with Cdk2 T182C: Protein: Cdk2, cysteine position T182C, in h^-1
T3 construct: poly-histidine; made in house; host or cells: E. coli
Outline: (§1)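 Thiol consumption was monitored kinetically using 5 μM Cdk2 (C177A plus one introduced cysteine) in degassed phosphate buffer at pH 8 with TCEP beads. Plates were kept 1 h at room temperature before fluorescence reading, and rate constants came from exponential decay fitting.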

Cdk2[C177A, F80C, K278C] = biological target: T4, Cdk2[C177A, F80C, K278C] (Homo sapiens, UniProt P24941, C177A/F80C/K278C); test: Kinetic thiol consumption assay with mutant Cdk2 as model thiol; format: binding; set-up: unit not given here; conditions: 500 μM ligand, 5 μM thiol, phosphate buffer pH 8
T4 construct: poly-histidine; made in house; host or cells: E. coli
Protocol: A library of 120 acrylamides was screened against a) human cyclin-dependent kinase 2 (Cdk2, which contains one surface exposed cysteine residue—C177), prepared by cloning cDNA into the pRSETA bacterial expression vector to generate a poly-histidine tagged Cdk2 fusion that was purified from E. coli using standard techniques, and b) a model thiol (specific details are given below). The structures of these 120 acrylamides are set out in Table 1, above.
To wells containing 150 μL thiol (Cdk2 or model thiol) (5 μM) in degassed phosphate buffer (pH 8) was added immobilized TCEP beads (2% v/v).
After incubation of the fluorescence plates for 1 hour at room temperature, fluorescence measurements (excitation/emission of 380/470 nm) were taken on a PerkinElmer EnVision multilabel plate reader and processed with EnVision Workstation version 1.12.
Fluorescence measurements were normalized against a DMSO/thiol only control and plotted against time.
Rate constants were calculated using GraphPad software Prism version 6 by fitting a first order exponential decay to the data. The rate constant for each acrylamide with Cdk2 was divided by the rate constant for that fragment with the model thiol to provide the rate enhancement for each ligand candidate.
The model thiol used in Example 2 is a mutant form of human Cdk2 (C177A, F80C, K278C) which contains two engineered surface exposed cysteine residues. Mutations were introduced by site-directed mutagenesis and the resulting cDNA was cloned into the pRSETA bacterial expression vector to generate a poly-histidine tagged Cdk2 fusion that was purified from E. coli using standard techniques.

Cdk2(H71C) (C177A) = biological target: T5, Cdk2(H71C) (C177A) (Homo sapiens, UniProt P24941, C177A/H71C); test: Kinetic thiol consumption assay with Cdk2 mutant H71C; format: binding; set-up: key to Rate enhancement, Cdk2 H71C: rate constant with Cdk2 ÷ rate constant with model thiol (fold); conditions: additional mutation C177A; for Rate constant with Cdk2 H71C: Protein: Cdk2, cysteine position H71C, in h^-1
T5 construct: poly-histidine; made in house; host or cells: E. coli
Outline: as §1

Cdk2(S181C) (C177A) = biological target: T6, Cdk2(S181C) (C177A) (Homo sapiens, UniProt P24941, C177A/S181C); test: Kinetic thiol consumption assay with Cdk2 mutant S181C; format: binding; set-up: key to Rate enhancement, Cdk2 S181C: rate constant with Cdk2 ÷ rate constant with model thiol (fold); conditions: additional mutation C177A; for Rate constant with Cdk2 S181C: Protein: Cdk2, cysteine position S181C, in h^-1
T6 construct: poly-histidine; made in house; host or cells: E. coli
Outline: as §1

Cdk2(N272C) (C177A) = biological target: T7, Cdk2(N272C) (C177A) (Homo sapiens, UniProt P24941, C177A/N272C); test: Kinetic thiol consumption assay with Cdk2 mutant N272C; format: binding; set-up: key to Rate enhancement, Cdk2 N272: rate constant with Cdk2 ÷ rate constant with model thiol (fold); conditions: for Rate enhancement, Cdk2 N272: Cdk2 N272, additional mutation C177A; for Rate constant with Cdk2 N272C: Protein: Cdk2, cysteine position N272C, additional mutation C177A, in h^-1
T7 construct: poly-histidine; made in house; host or cells: E. coli
Outline: as §1

Cdk2(S276C) (C177A) = biological target: T8, Cdk2(S276C) (C177A) (Homo sapiens, UniProt P24941, C177A/S276C); test: Kinetic thiol consumption assay with Cdk2 mutant S276C; format: binding; set-up: key to Rate enhancement, Cdk2 S276C: rate constant with Cdk2 ÷ rate constant with model thiol (fold); conditions: additional mutation C177A; for Rate constant with Cdk2 S276C: Protein: Cdk2, cysteine position S276C, in h^-1
T8 construct: poly-histidine; made in house; host or cells: E. coli
Outline: as §1

Cdk2(R122C) (C177A) = biological target: T9, Cdk2(R122C) (C177A) (Homo sapiens, UniProt P24941, C177A/R122C); test: Kinetic thiol consumption assay with Cdk2 mutant R122C; format: binding; set-up: key to Rate enhancement, Cdk2 R122C: rate constant with Cdk2 ÷ rate constant with model thiol (fold); conditions: Cdk2 R122C, additional mutation C177A
T9 construct: poly-histidine; made in house; host or cells: E. coli
Outline: as §1

SMILES: C=CC(=O)NCc1ccc(OC)cc1 [BN-63]
- Rate constant with glutathione (k(GSH)) [1]: 0.00215
- Rate constant with Glutathione [1]: 0.002052
- Rate enhancement, Cdk2 F80C (Cdk2(C177A, F80C)): 0.5692
- Rate constant with Cdk2 F80C (Cdk2(C177A, F80C)): 0.001168
- Rate constant with Cdk2 (k(Cdk2)) [2]: 0.00194
- Rate enhancement, Cdk2 WT [2]: 1.461
- Rate constant with Cdk2 WT [2]: 0.002998
- k(Cdk2)/k(Cdk2_mut) rate enhancement [2]: 0.5882
- k(Cdk2)/k(GSH) rate enhancement [2]: 0.9011
- Rate enhancement, Cdk2 T182C (Cdk2(T182C) (C177A)): 0.7193
- Rate constant with Cdk2 T182C (Cdk2(T182C) (C177A)): 0.001476
- Rate constant with Cdk2[C177A, F80C, K278C] (k(Cdk2_mut)) (Cdk2[C177A, F80C, K278C]): 0.0033
- Rate enhancement, Cdk2 H71C (Cdk2(H71C) (C177A)): 3.1842E−11
- Rate constant with Cdk2 H71C (Cdk2(H71C) (C177A)): 6.534E−14
- Rate enhancement, Cdk2 S181C (Cdk2(S181C) (C177A)): 0.4386
- Rate constant with Cdk2 S181C (Cdk2(S181C) (C177A)): 0.0009
- Rate enhancement, Cdk2 N272 (Cdk2(N272C) (C177A)): 0.5
- Rate constant with Cdk2 N272C (Cdk2(N272C) (C177A)): 0.001026
- Rate enhancement, Cdk2 S276C (Cdk2(S276C) (C177A)): 0.393
- Rate constant with Cdk2 S276C (Cdk2(S276C) (C177A)): 0.0008064
- Rate enhancement, Cdk2 R122C (Cdk2(R122C) (C177A)): 0

SMILES: C=CC(=O)NCc1ccc(C(=O)OC)cc1 [BN-65]
- Rate constant with glutathione (k(GSH)) [1]: 0.00292
- Rate constant with Glutathione [1]: 0.002366
- Rate enhancement, Cdk2 F80C (Cdk2(C177A, F80C)): 2.644
- Rate constant with Cdk2 F80C (Cdk2(C177A, F80C)): 0.006255
- Rate constant with Cdk2 (k(Cdk2)) [2]: 0.00121
- Rate enhancement, Cdk2 WT [2]: 0.7866
- Rate constant with Cdk2 WT [2]: 0.001861
- k(Cdk2)/k(Cdk2_mut) rate enhancement [2]: 0.3031
- k(Cdk2)/k(GSH) rate enhancement [2]: 0.4134
- Rate enhancement, Cdk2 T182C (Cdk2(T182C) (C177A)): 0.8711
- Rate constant with Cdk2 T182C (Cdk2(T182C) (C177A)): 0.002061
- Rate constant with Cdk2[C177A, F80C, K278C] (k(Cdk2_mut)) (Cdk2[C177A, F80C, K278C]): 0.00398
- Rate enhancement, Cdk2 H71C (Cdk2(H71C) (C177A)): 0.538
- Rate constant with Cdk2 H71C (Cdk2(H71C) (C177A)): 0.001273
- Rate enhancement, Cdk2 S181C (Cdk2(S181C) (C177A)): 0.5182
- Rate constant with Cdk2 S181C (Cdk2(S181C) (C177A)): 0.001226
- Rate enhancement, Cdk2 N272 (Cdk2(N272C) (C177A)): 0.9112
- Rate constant with Cdk2 N272C (Cdk2(N272C) (C177A)): 0.002156
- Rate enhancement, Cdk2 S276C (Cdk2(S276C) (C177A)): 1.179
- Rate constant with Cdk2 S276C (Cdk2(S276C) (C177A)): 0.002789
- Rate enhancement, Cdk2 R122C (Cdk2(R122C) (C177A)): 0
